Biological target: T1, Papain (Carica papaya, UniProt P00784)
T1 sequence (P00784 whole entry): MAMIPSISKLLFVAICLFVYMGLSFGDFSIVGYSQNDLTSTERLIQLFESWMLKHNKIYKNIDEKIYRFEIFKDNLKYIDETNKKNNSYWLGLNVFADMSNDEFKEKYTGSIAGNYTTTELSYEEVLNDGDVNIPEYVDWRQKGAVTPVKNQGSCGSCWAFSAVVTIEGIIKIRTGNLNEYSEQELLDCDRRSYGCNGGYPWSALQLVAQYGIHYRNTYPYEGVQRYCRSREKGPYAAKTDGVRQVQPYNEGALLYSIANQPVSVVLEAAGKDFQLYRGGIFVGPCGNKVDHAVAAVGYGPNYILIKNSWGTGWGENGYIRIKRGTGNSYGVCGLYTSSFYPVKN
Experiment: Inhibition of papaya papain using BAPNA as substrate assessed as p-nitroaniline release by spectrophotometric analysis

Row | IC50 [µM] | Compound
1 | > 200 | CCOP(=O)(CC=C(NC(=O)[C@H](CC(C)C)NC(=O)OCc1ccccc1)c1ccccc1)OCC
2 | > 200 | CCOP(=O)(CC=C(NC(=O)[C@H](CC(C)C)NC(=O)OC(C)(C)C)c1ccccc1)OCC
3 | > 200 | CCOP(=O)(CC=C(NC(=O)[C@H](Cc1c[nH]c2ccccc12)NC(=O)OCc1ccccc1)c1ccccc1)OCC
4 | > 200 | CCOP(=O)(CC=C(NC(=O)[C@H](CC(C)C)NC(=O)OCC1c2ccccc2-c2ccccc21)c1ccccc1)OCC
